Measured values published in PMC7271668 (Frontiers in Pharmacology, 2020).
Several values for one entry are separate records, joined by “and”; a condition that tells them apart may be missing. Identical values can stand only once. Like-named read-outs stand apart in the source and are kept apart here.

Tests used:
human OAT3 [1] = biological target: T1, human OAT3 (Homo sapiens, UniProt Q8TCC7); assay: Inhibition of OAT3-mediated enalaprilat uptake in OAT3-transfected HEK293 cells
T1 sequence (Q8TCC7 1-542): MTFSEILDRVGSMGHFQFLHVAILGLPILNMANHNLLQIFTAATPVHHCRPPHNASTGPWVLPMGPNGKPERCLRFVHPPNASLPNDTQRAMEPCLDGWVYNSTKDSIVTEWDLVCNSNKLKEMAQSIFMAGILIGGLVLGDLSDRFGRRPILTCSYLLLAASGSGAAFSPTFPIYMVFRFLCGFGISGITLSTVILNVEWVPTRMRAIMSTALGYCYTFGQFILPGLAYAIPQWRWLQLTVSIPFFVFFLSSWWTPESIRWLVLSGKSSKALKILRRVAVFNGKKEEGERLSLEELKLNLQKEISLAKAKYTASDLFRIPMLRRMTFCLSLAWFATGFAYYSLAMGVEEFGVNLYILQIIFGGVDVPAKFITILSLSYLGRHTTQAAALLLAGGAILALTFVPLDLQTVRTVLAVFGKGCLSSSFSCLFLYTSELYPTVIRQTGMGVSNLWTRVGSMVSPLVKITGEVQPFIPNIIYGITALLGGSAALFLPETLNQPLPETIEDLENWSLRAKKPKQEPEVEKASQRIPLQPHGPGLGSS
Experimental: Because the present study examined a number of compounds with structural diversity, a 30 min preincubation was carried out for all compounds in order to eliminate inconsistencies. […] OAT3-transfected HEK293 cells or mock cells were washed thrice with pre-warmed HBSS and preincubated with HBSS containing different concentrations of inhibitors for 30 min at 37°C.
For sample preparation before analysis, 100 μl acetonitrile containing 500 nM tolbutamide (internal standard, IS) was added as a protein-precipitating agent to 50-μl cell samples. All samples were vortexed for 2 min and centrifuged at 13,000 rpm for 10 min. Ten microliters of the supernatants were transferred into injection vials for concentration determination.
The LC-MS/MS system consisted of an API 4000 Qtrap mass spectrometer equipped with a turbo-V ionization source (Applied Biosystems, Foster City, CA, USA), two LC-20AD pumps with a CBM-20A controller, a DGU-20A solvent degasser, and a SIL-20A autosampler (Shimadzu, Columbia, MD, USA). A reverse phase C18 column (50×2.1 mm, 5 µm particle size; Agela, China) and a gradient elution at 0.3 ml/min were employed for chromatographic separation. […] Analyst 1.6.3 (AB SCIEX, USA) was used to collect and process the data.
where I was the inhibitor concentration.

OAT1 = system: OAT1; parameters: method as in Tan et al., 2017; conditions: ref Tan et al., 2017; cited from earlier work
OAT4 = system: OAT4; parameters: method as in Tan et al., 2017; conditions: ref Tan et al., 2017; cited from earlier work
[2] = cited from earlier work; for Excreted into the urine, % of the dose: after oral administration of enalapril, MacFadyen et al., 1993
human OAT1 = biological target: T2, human OAT1 (Homo sapiens, UniProt Q4U2R8); assay: Enalaprilat uptake kinetics in HEK293 cells overexpressing human OAT1; format: in vitro ADME; conditions: OAT1-transfected HEK293, net uptake (mock subtracted), enalaprilat 0-500 μM, 5 min incubation
T2 construct: expressed in transfected cells; gift of Prof; Dafang Zhong, Shanghai Institute of Materia Medica
T2 sequence (Q4U2R8 1-563): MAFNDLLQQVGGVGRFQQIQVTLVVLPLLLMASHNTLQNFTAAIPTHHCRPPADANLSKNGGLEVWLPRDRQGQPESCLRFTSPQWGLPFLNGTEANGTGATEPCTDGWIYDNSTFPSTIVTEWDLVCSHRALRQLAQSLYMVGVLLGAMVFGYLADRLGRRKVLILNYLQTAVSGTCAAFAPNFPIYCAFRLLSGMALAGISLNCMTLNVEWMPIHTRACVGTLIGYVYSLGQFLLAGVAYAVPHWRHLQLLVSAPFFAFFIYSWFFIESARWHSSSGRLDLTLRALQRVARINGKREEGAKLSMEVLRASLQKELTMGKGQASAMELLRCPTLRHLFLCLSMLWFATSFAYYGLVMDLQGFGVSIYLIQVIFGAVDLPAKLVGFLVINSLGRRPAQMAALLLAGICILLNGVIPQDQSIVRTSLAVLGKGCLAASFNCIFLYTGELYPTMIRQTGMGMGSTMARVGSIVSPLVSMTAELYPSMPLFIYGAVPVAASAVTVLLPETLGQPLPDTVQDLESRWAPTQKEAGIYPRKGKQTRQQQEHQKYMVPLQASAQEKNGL
Experimental: (§1) Human embryonic kidney 293 (HEK293) cells stably overexpressing human OAT1, OAT3, organic cation transporter 2 (OCT2), OATP1B1, OATP1B3 or OATP2B1 as well as empty vectors were generously provided by Professor Dafang Zhong, Shanghai Institute of Materia Medica, Chinese Academy of Sciences (Shanghai, China). Respective transport activities had been validated using specific probe substrates ([Zhong et al., 2014]). All cells were grown in DMEM supplemented with 10% FBS, at 37°C with 5% CO2 and 95% humidity.
(§2) Cells were seeded in 24-well plates at a density of 200,000 cells per well and cultured in high glucose DMEM for 48 h. On the third day and prior to the start of the uptake experiment, cells were washed thrice with pre-warmed HBSS and then incubated with HBSS for 30 min at 37°C. […] Incubations were terminated 5 min after the addition of substrate by washing with ice-cold HBSS. Cells were immediately lysed with 200 μl ultrapure water by repeated freezing and thawing up to three times. Intracellular drug concentrations were determined using a liquid chromatography - tandem mass spectrometry (LC-MS/MS) method. Cellular protein levels were estimated using the Bicinchoninine acid assay per manufacturer’s instruction (Takara, Japan).
(§3) Kinetic parameters of transporter-mediated uptake were estimated by nonlinear regression analysis using GraphPad Prism 5.01 (La Jolla, CA, USA). […]

human OAT3 [3] = biological target: T1, human OAT3; assay: Enalaprilat uptake kinetics in HEK293 cells overexpressing human OAT3; format: in vitro ADME; parameters: expressed in transfected cells; gift of Prof; Dafang Zhong, Shanghai Institute of Materia Medica
Experimental: as §1, §2, §3

human OATP2B1 = biological target: T3, human OATP2B1 (Homo sapiens, UniProt O94956); assay: Enalaprilat uptake kinetics in HEK293 cells overexpressing human OATP2B1; format: in vitro ADME; conditions: OATP2B1-transfected HEK293, net uptake (mock subtracted), enalaprilat 0-500 μM, 5 min incubation
T3 construct: expressed in transfected cells; gift of Prof; Dafang Zhong, Shanghai Institute of Materia Medica
T3 sequence (O94956 1-709): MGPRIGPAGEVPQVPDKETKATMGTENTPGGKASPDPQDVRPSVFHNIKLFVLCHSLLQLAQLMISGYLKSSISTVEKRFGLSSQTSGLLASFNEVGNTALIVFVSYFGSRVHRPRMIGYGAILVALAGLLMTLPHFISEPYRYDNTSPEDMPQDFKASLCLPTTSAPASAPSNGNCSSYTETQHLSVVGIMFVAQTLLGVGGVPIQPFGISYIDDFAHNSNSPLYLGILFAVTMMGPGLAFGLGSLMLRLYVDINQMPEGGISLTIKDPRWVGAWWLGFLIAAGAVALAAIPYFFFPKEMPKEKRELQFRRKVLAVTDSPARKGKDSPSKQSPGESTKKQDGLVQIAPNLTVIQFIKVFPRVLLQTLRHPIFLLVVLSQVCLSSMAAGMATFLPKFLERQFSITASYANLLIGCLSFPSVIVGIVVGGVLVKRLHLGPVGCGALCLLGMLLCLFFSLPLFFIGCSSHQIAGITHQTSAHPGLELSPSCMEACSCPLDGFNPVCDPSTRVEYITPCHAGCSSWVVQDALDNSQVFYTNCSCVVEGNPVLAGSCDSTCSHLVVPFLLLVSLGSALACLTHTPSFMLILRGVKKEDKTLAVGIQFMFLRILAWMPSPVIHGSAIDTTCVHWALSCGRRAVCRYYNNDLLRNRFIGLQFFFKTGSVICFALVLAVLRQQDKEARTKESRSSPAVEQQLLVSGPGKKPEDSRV
Experimental: as §1, §2, §3

OAT3 = conditions: cited from earlier work
[4] = IC50, inhibition of enalaprilat uptake by selected drugs, HEK293-OAT3, enalaprilat 30 µM, 30 min preincubation, mean ± sd of three incubations

| Compound | IC50 (human OAT3 [1]; [4]) | IC50 (human OAT3 [1]) [nM] | also measured |
| --- | --- | --- | --- |
| CCCc1nc2c(C)cc(-c3nc4ccccc4n3C)cc2n1Cc1ccc(-c2ccccc2C(=O)O)cc1 [Telmisartan] | 860 ± 220 nM | – | – |
| COc1c(O)cc2oc(-c3ccccc3)cc(=O)c2c1O [Oroxylin A] | – | 220 ± 120 | – |
| O=c1c(O)c(-c2ccccc2)oc2cc(O)cc(O)c12 [Galangin] | – | 30 ± 26 | – |
| CCOc1cc(CC(=O)N[C@@H](CC(C)C)c2ccccc2N2CCCCC2)ccc1C(=O)O [Repaglinide] | 2100 ± 310 nM | – | – |
| O=c1cc(-c2ccccc2)oc2cc(O)cc(O)c12 [Chrysin] | – | 44 ± 13 | – |
| CCC1=C(C)CN(C(=O)NCCc2ccc(S(=O)(=O)NC(=O)N[C@H]3CC[C@H](C)CC3)cc2)C1=O [Glimepiride] | 370 ± 40 nM | – | – |
| O=c1c(O[C@@H]2O[C@H](CO)[C@@H](O)[C@H](O)[C@H]2O)c(-c2ccc(O)c(O)c2)oc2cc(O)cc(O)c12 [Isoquercetin] | – | 11700 ± 2060 | – |
| O=C1C(CC[S+]([O-])c2ccccc2)C(=O)N(c2ccccc2)N1c1ccccc1 (centres unmarked) [Sulfinpyrazone] | 950 ± 370 nM | – | – |
| O=c1c(O)c(-c2ccc(O)c(O)c2)oc2cc(O)cc(O)c12 [Quercetin] | – | 750 ± 370 | – |
| CCc1oc2ccccc2c1C(=O)c1cc(Br)c(O)c(Br)c1 [Benzbromarone] | 140 nM and < 1000 nM | – | – |
| O=c1cc(-c2ccc(O)cc2)oc2cc(O)cc(O)c12 [Apigenin] | – | 330 ± 90 | – |
| CC(C)=CCc1c(-c2ccc(O)cc2O)oc2c(CC=C(C)C)c(O)cc(O)c2c1=O [Mulberrin] | – | 1220 ± 180 | – |
| CC(C)(Sc1ccncc1-c1ccc(C#N)c2ccccc12)C(=O)O [Verinurad] | 800 nM and < 1000 nM | – | Affinity for OAT1, fold lower as compared to URAT1 (OAT1): approximately 200 fold; Affinity for OAT4, fold lower as compared to URAT1 (OAT4): approximately 200 fold |
| O=c1c(O)c(-c2ccc(O)cc2)oc2cc(O)cc(O)c12 [Kaempferol] | – | 88 ± 14 | – |
| C[C@H](N[C@@H](CCc1ccccc1)C(=O)O)C(=O)N1CCC[C@H]1C(=O)O [Enalaprilat] | – | – | Excreted into the urine, % of the dose ([2]; ref Ulm et al., 1982): 43 % of the dose; Vmax (human OAT1): 42.4 ± 1.3 nmol/min/mg protein; Vmax (human OAT3 [3]; OAT3-transfected HEK293, net uptake (mock subtracted), enalaprilat 0-500 μM, 5 min incubation): 87.4 ± 1.1 nmol/min/mg protein; Vmax (human OATP2B1): 20.1 ± 2.7 nmol/min/mg protein |
| Cc1nc(-c2ccc(OCC(C)C)c(C#N)c2)sc1C(=O)O [Febuxostat] | 410 ± 50 nM | – | – |
| O=c1c(O)c(-c2ccc(O)c(O)c2)oc2cc(O)ccc12 [Fisetin] | – | 3820 ± 1600 | – |

| Compound | IC50 (human OAT3 [1]; [4]) | IC50 (human OAT3 [1]) [nM] | also measured |
| --- | --- | --- | --- |
| O=c1c(O)c(-c2ccc(O)c(O)c2)oc2c(O)c(O)cc(O)c12 [Gossypetin] | – | 710 ± 80 | – |
| O=S(=O)(O)CCS [mesna] | – | – | Km (OAT3; read-out: Km as OAT3 substrate, ref Cutler et al., 2012): 390 µM |
| O=C1c2c(O)cc(O)cc2OC(c2ccc(O)c(O)c2)C1O (centres unmarked) [Taxifolin] | – | 7020 ± 3370 | – |
| Cc1ccc(C)c(OCCCC(C)(C)C(=O)O)c1 [Gemfibrozil] | 3500 ± 510 nM | – | – |
| O=c1c(-c2ccc(O)cc2)coc2cc(O)ccc12 [Daidzein] | – | 5800 ± 3960 | – |
| NNC(=O)c1ccncc1 [isoniazid] | – | – | Km (OAT3; read-out: Km as OAT3 substrate, ref Parvez et al., 2018): 234 µM |
| CCCCC(=O)N(Cc1ccc(-c2ccccc2-c2nnn[nH]2)cc1)[C@H](C(=O)O)C(C)C [Valsartan] | 900 ± 90 nM | – | – |
| O=C(O)CSc1nnc(Br)n1-c1ccc(C2CC2)c2ccccc12 [Lesinurad] | 800 nM and < 1000 nM | – | – |
| O=C1C[C@@H](c2ccc(O)c(O)c2)Oc2cc(O)cc(O)c21 [Eriodictyol] | – | 1480 ± 600 | – |
| O=c1c(O)c(-c2cc(O)c(O)c(O)c2)oc2cc(O)cc(O)c12 [Myricetin] | – | 22600 ± 6860 | – |
| CCOC(=O)[C@H](CCc1ccccc1)N[C@@H](C)C(=O)N1CCC[C@H]1C(=O)O [Enalapril] | – | – | Plasma exposure, fold lower than that of enalaprilat ([2]; after enalapril administration, ref Li et al., 2017): about 4.5 fold; Excreted into the urine, % of the dose ([2]; ref Ulm et al., 1982): 18 % of the dose; Fraction of the dose converted to enalaprilat ([2]; oral enalapril, dose 10 mg, man, ref Ulm et al., 1982): about 40%; Transport by OAT3 (substrate status) (human OAT3 [3]; OAT3-transfected HEK293, Supplementary Figure 1): could also be transported by OAT3 |
| COc1c(O[C@@H]2O[C@H](C(=O)O)[C@@H](O)[C@H](O)[C@H]2O)cc(O)c2c(=O)cc(-c3ccccc3)oc12 [Wogonoside] | – | 11700 ± 6290 | – |
| COc1c(O)cc(O)c2c(=O)cc(-c3ccccc3)oc12 [Wogonin] | – | 240 ± 40 | – |
| O=c1cc(-c2ccc(O)c(O)c2)oc2cc(O)cc(O)c12 [Luteolin] | – | 660 ± 110 | – |
| C=C1CC23CCC4C(C)(C(=O)OC5OC(C(=O)O)C(O)C(O)C5O)CCCC4(C)C2CCC1(O)C3 (centres unmarked) [steviol acyl glucuronide] | – | – | Km (OAT3): 368 µM |
| O=c1cc(-c2ccc(O)cc2)oc2cc(O[C@@H]3O[C@H](CO)[C@@H](O)[C@H](O)[C@H]3O)cc(O)c12 [Apigetrin] | – | 7800 ± 4030 | – |
